This is an account of results in ChEMBL document CHEMBL4184171, “Design and synthesis of a biaryl series as inhibitors for the bromodomains of CBP/P300” (Bioorg Med Chem Lett, 2018).

In brackets after ≈: the same amount, converted by molar mass.

The target of data set [1] is Bromodomain-containing protein 4 (Homo sapiens, UniProt O60885).
Description: Inhibition of BRD4 bromodomain 1 (unknown origin) by TR-FRET assay
The nature of data set [2]: in vitro. The settings on record: mouse, microsomes.
Description: Clearance in mouse liver microsomes
A short description of data set [3]: in vitro. The settings on record: rat, microsomes.
Description: Clearance in rat liver microsomes
Data set [4] in a line: in vitro. The following applies: human, microsomes.
Description: Clearance in human liver microsomes
A short description of data set [5]: in vivo. The settings on record: CD-1, mouse, iv, 1 mg/kg.
Description: Clearance in CD-1 mouse at 1 mg/kg, iv or 5 mg/kg, po
Data set [6] in a line: in vivo. The settings on record: CD-1, mouse, iv, 1 mg/kg. This is another data set of the same source.
Description: Volume of distribution at steady state in CD-1 mouse at 1 mg/kg, iv or 5 mg/kg, po
Data set [7] is described as follows: in vivo. The following applies: CD-1, mouse.
Description: Half life in CD-1 mouse at 1 mg/kg, iv or 5 mg/kg, po
Data set [8] in a line: in vivo. The settings on record: CD-1, mouse, po, 5 mg/kg.
A short description of data set [9]: in vitro. The settings on record: dog, MDCK.
Description: Apparent permeability from apical to basolateral side in MDCK cells
Data set [10] is described as follows: in vitro. The settings on record: mouse, plasma.
Description: Protein binding in mouse plasma
Data set [11] in a line: in vitro. The following applies: rat, plasma.
Description: Protein binding in rat plasma
Data set [12] is described as follows: in vitro. The following applies: human, plasma.
Description: Protein binding in human plasma
The nature of data set [13]: in vitro. The settings on record: mouse, hepatocytes.
Description: Hepatic clearance in mouse hepatocytes
The nature of data set [14]: in vitro. The following applies: rat, hepatocytes.
Description: Hepatic clearance in rat hepatocytes
Data set [15] is described as follows: in vitro. The following applies: human, hepatocytes.
Description: Hepatic clearance in human hepatocytes
A short description of the next data set: physchem. The following applies: buffer, pH 7.4.

In general, IC50 refers to the concentration needed to halve the response being measured. Lower therefore signals greater potency. In general, clearance refers to a measure of how efficiently the substance is removed, as volume per time. A higher clearance goes with efficient removal. Usually Vd stands for the apparent volume that relates the amount in the body to the concentration in plasma or blood. The low end stands for little distribution into tissue, the high end for wide distribution into tissue. The half-life is how long it takes for the measured level to halve. A high value points to slow decline. The term bioavailability denotes the share of a dose that reaches the circulation, judged against a reference dose that is usually intravenous. Read a low bioavailability as little systemic uptake. By Papp A→B is commonly meant how fast a substance crosses the layer from the apical side. Read a high Papp A→B as fast passage. For orientation: fraction unbound means free concentration divided by total concentration. A low value points to extensive binding. What is called solubility (kinetic) is the concentration staying in solution when a stock, usually in DMSO, is diluted into the medium.

Description for physchem: Kinetic solubility in PBS buffer at pH 7.4

For `CC(=O)N1CCc2c(c(-c3cccc4c[nH]c(=O)cc34)nn2C2CCOCC2)C1`, the IC50 in data set [1] was over 20 µM.

Regarding `CC(=O)N1CCc2c(c(-c3cc(CO)cc4ccncc34)nn2C2CCOCC2)C1`, in [1], the IC50 is over 20 µM.

Consider `CC(=O)N1CCc2c(c(-c3cncc4ccccc34)nn2C2CCOCC2)C1`, for which, in data set [1], the IC50 was over 20 µM.

On to `CC(=O)N1CCc2c(c(-c3cccc4cc(-c5cn(C)nc5C#N)ncc34)nn2C2CCOCC2)C1`, for which the IC50 in [1] was found to be 3.8 µM. The CLhep predicted in “in vitro [2]” was 32 mL/min/kg; in “in vitro [3]” it was 45 mL/min/kg; in “in vitro [4]” it was 11 mL/min/kg.

As to `CC(=O)N1CCc2c(c(-c3cccc4cc(-c5cnn(C)c5)ncc34)nn2C2CCOCC2)C1`, in data set [1], the IC50 is 2.5 µM. Further, the clearance in the data set “in vivo [5]” was 11 mL/min/kg. In addition, the Vd in “in vivo [6]” is 1.3 L/kg. For the same compound, the half-life in the data set “in vivo [7]” was 1.6 h. The same compound displayed a bioavailability in “in vivo [8]” of 67%. The CLhep predicted in “in vitro [2]” was 20 mL/min/kg; in the data set “in vitro [3]”, 18 mL/min/kg; in “in vitro [4]”, 8 to 8.3 mL/min/kg; in “in vitro [13]”, under 21 mL/min/kg; in “in vitro [14]” it was 14 mL/min/kg; in “in vitro [15]”, under 6 mL/min/kg. In addition, in the data set “in vitro [9]”, the Papp A→B came to 10 ×10⁻⁶ cm/s. Also, the values for the unbound share (fraction unbound) in “in vitro [10]”, in the data set “in vitro [11]” and in the data set “in vitro [12]” were 0.15, 0.24 and 0.3, respectively. Also, the solubility (kinetic) in the data set “physchem” stood at 92 µM (≈ 42 µg/mL).

In turn, `COc1ccc(-c2nn(C3CCOCC3)c3c2CN(C(C)=O)CC3)c2cnccc12` came in with an IC50 in [1] of 11 µM.
